Data set [1] relates to kidney field (cad17:EGFP). As to the kind of experiment: Image-based high-content screen, Tg(cad17:EGFP) embryos, CNT analysis. The format is in vivo, zebrafish. The conditions noted are these: 4 individual values (n=4). From the text: Initial studies, above, used a phenotypic marker of the ability to expand the renal progenitor cell field in larval zebrafish, and identified the first member of a novel class of HDAC inhibitors, PTBA as well as a few structural and functional analogs. These findings form the basis for further study. However, this technology is limited as it is dependent on subjective interpretation of a subtle phenotypic change in the fish. Therefore, in order to develop a more objective and higher content screen, we developed an image-based high-content screen using transgenic zebrafish (Vogt A, et al. Automated image-based phenotypic analysis in zebrafish embryos. Dev Dyn. 2009; 238(3):656-63). […] Tg(Cad17:EGFP) zebrafish is a transgenic line that was prepared by isolation of an approximately 5 kb (5066 bp) promoter element and approximately 3 kb (3221 bp) first intron element from the cadherin 17 locus, cloning it into a plasmid along with the enhanced GFP open reading frame and injecting if into zebrafish embryos to established transgenic lines using the meganuclease transgenesis method (Soroldoni et al., Simple and efficient transgenesis with meganuclease constructs in zebrafish, Methods Mol Bio 2009; 546: 117-30.). […]
For all second-generation compounds, the cad17:EGFP transgene is used as the primary readout to assay for expansion of kidney field (FIG. 35). […]

In data set [2] the test system is mouse models of unilateral ureteral obstruction (UUO). As to the kind of experiment: Unilateral ureteral obstruction (UUO). In kind it is in vivo. From the text: The model of unilateral ureteral obstruction generates progressive renal fibrosis. Surgically created UUO can be experimentally manipulated with respect to timing, severity, and duration, while reversal of the obstruction permits the study of recovery.
FIG. 47 represents the results of the testing of compounds UPHD-00022, UPHD-00025 (PTBA), UPHD-00029, UPHD-00036, and UPHD-00186, for their efficacy in mouse models of unilateral ureteral obstruction (UUO) as follows: in the UUO models, one ureter was ligated for 7 days and compounds were delivered via IP for days 0 to 6. At day 7 kidneys were harvested for Sirius red staining. […] Therefore, in the models tested, the only compound proven to be effective in all models and with significant delayed onset of treatment is UPHD-186.

In data set [3] the test system is BALB/c mice, severe IR-AKI. Nature of the data set: Severe ischemia-reperfusion AKI (IR-AKI). In kind it is in vivo, mouse. How it is done:
Surgeries were performed on a water-bath heated platform at 38° C. on 10-12 week old male BALB/c mice. For moderate IR-AKI, mice underwent a right nephrectomy followed by left renal pedicle clamping (800 μm pressure clamp, FST 18052-03). The clamp was released after 26 minutes, and tissue reperfusion was confirmed before completing the surgery. Mice were treated daily with indicated doses of compounds or equivalent volume of 20% 2-hydroxypropyl-β-cyclodextrin in water as vehicle control starting 24 h after injury. Since initial injury with this model is variable, mice were randomly allocated vehicle or m4PTB treatment if their serum creatinine levels were 0.8 to 1.2 mg/dl 24 h post IR injury. Other mice were excluded from further analysis and euthanized. To induce severe IR-AKI, mice underwent left renal pedicle clamping for 30 minutes and delayed contralateral nephrectomy was performed after 8 days.
For mouse studies, kidney sections were stained using Periodic Acid-Schiff (PAS) to assess renal tubular injury. Tubular injury (casts, dilated tubules, epithelial cell blebbing, and vacuolization, loss of brush borders or nuclei) was scored as described. Sirius red staining was performed using an established protocol used to evaluate renal fibrosis/collagen accumulation in kidney sections. To quantify Sirius red staining we used an Olympus BX-41 microscope equipped with an Olympus DP-72 digital camera system and polarizing light filter. Results are expressed as the mean percent fibrosis for all of the images per slide region (Sirius red positive/total surface area).
We used of 2-hydroxypropyl-β-cyclodextrin (CD, Sigma), a low toxicity drug formulation vehicle that has been well characterized and used extensively as a hydrophobic drug delivery vehicle. We could achieve concentrations of up to ˜12 mg/ml of PTBA analogues in 20% CD in water (100 mg/kg in volumes of ˜150-250 μl), and daily IP injections with 200 μl 20% CD in water had no effect on renal functional recovery following IR-AKI. Therefore all studies were performed using compounds dissolved in 20% CD. To assess dosing and biological activity of PTBA analogues in mice, CD1 mice were injected with varying doses of compounds IP and kidneys isolated at different time point for histone extraction and analysis of histone H4 acetylation, a marker of HDAC inhibitor activity, as outlined below. Based on results of these studies, mice were treated daily with 1, 10, 50 or 100 mg/kg of compound or equivalent volume of 20% CD vehicle control starting 24 h after injury.
˜30 μl blood was obtained by tail vein bleed at different time points, and serum samples frozen after confirming that they had not undergone hemolysis (which interferes with enzymatic analysis for serum creatinine). Serum creatinine was evaluated in duplicate samples using a commercially available enzymatic cascade assay (Pointe Scientific, requires only ˜7 μl of serum). […] Blood Urea Nitrogen (BUN) was determined in duplicate samples using a colorimetric enzymatic assay kit (Infinity Urea, Thermo Scientific), and spot urinary albumin/creatinine ratios determined using a mouse albumin ELISA and urinary creatinine assay kit (Albuwell and Creatinine Companion, Exocell).
Compounds 22, 25, 29, 36, and 186 were injected for 7 days at […] starting 24 hrs after severe IR treatment. […] Fibrotic (scar) tissue was measured using Sirus Red after 28 days for various markers of fibrosis.

Data set [4] concerns HDAC activity in DSI9 mouse erythroleukemia cells. The conditions noted are these: 5 mM; cited from earlier work.
Data set [5] concerns zebrafish larvae. As to the kind of experiment: Phenotypic scoring of edema and survival in zebrafish larvae at 72 hpf. In kind it is in vivo. The conditions noted are these: 25 μM PBA, 200 nM TSA. From the text: (§1) PTBA was synthesized as described below. Hydroxyurea and aphidicolin were obtained from Sigma-Aldrich.
Wild type: no visible edema or developmental delay.

For data set [6], the system named is myod1 (somites), fli1a (vasculature), ntla (notochord). As to the kind of experiment: In situ hybridization for mesodermal markers myod1, fli1a, ntla in 10-somite embryos. The conditions noted are these: 25 μM PBA. The format is in vivo, zebrafish. The protocol: as §1
(§2) In situ hybridization and immunocytochemistry: In situ hybridization was performed as previously described with some modifications. 142 Hybridization temperature was 65° C. Embryos were blocked in 2% blocking reagent (Roche) with 5% sheep serum in MAB (100 mM maleic acid and 150 mM NaCl [pH 7.5]). Whole-mount immunocytochemistry with 1:25 mouse anti-α6F antibody (Developmental Studies Hybridoma Bank) and 1:100 Cy3 secondary antibody (Jackson ImmunoResearch) was performed as described previously. 108 Embryos were embedded in JB-4 for sectioning per the manufacturer's instructions (Polysciences), sectioned at 5 μm, and mounted with Cytoseal 60 (Richard-Allan Scientific).

Data set [7] deals with human HDACs (HeLa cell nuclear extract). Nature of the data set: Fluorescence histone deacetylation assay with HeLa cell nuclear extract. The format is biochemical. The following applies: 5 mM compound, 10 μg HeLa extract. How it is done: To evaluate this in vitro, the deacetylation of a fluorescent peptide substrate was measured in the presence of human HDACs.
In vitro HDAC activity assays were performed using a fluorescence HDAC assay kit (Active Motif) according to the manufacturer's instructions. For maintaining compound solubility at 5 mM, the final DMSO concentration in all assay wells was increased to 5%. Fluorescence was detected using an M5 Plate Reader ([…])

Data set [8] deals with renal progenitor cells (lhx1a expression). Nature of the data set: In situ hybridization for lhx1a expression in 10-somite embryos (renal progenitor cell expansion). In kind it is in vivo. The following applies: 10-somite embryos. How it is done: as §1, §2
The remaining PTBA analogs were synthesized.
In situ hybridization for lhx1a was performed as described above. […] Compounds were classified as effective, partially-effective or ineffective based on comparison to the effects of PTBA at a given concentration.
Testing of the compounds is on-going, but for those tested, Table 3 provides first pass EC50s based upon colormetric in situ hybridizations for the Lhx1a mRNA expression levels. After the procedure is run, in situ hybridization is done for the lhx1 mRNA expression and the number of embryos that show an expanded kidney field is manually counted to establish the percent of embryos showing expansion. Then the EC50 is determined by plotting the percent expansion in Excel, graphing the results and using the trendline function to determine the 50 percent point. […] For UPHD-00186, the 4 values for EC50 are shown in Table 3 for the corresponding expression in zebrafish embryos employed an artificial intelligence-based image analysis method termed cognition network technology (CNT) for n=4.

The subject of data set [9] is histone H4 acetylation. Nature of the data set: Histone H4 hyperacetylation Western blot in embryos. In kind it is in vivo, zebrafish. The conditions noted are these: 24 hpf embryos treated 6 hours; 3 μM PTBA, 25 μM PBA, 200 nM TSA. The protocol:
It was next determined whether the HDACi function of PTBA was quantifiable in vivo. 24 hpf embryos were treated with 3 μM PTBA, 25 μM PBA, or 200 nM TSA for 6 hours. Protein extracts were prepared and immunoblotted with an anti-hyperacetylated histone H4 antibody. […] Furthermore, increasing the compound concentration caused a corresponding increase in hyperacetylation (FIG. 21).
SDS-PAGE and Western blotting were performed as described previously with some modifications (Noel, E. S. et al. Organ-specific requirements for Hdac1 in liver and pancreas formation. Dev Biol 322, 237-250, (2008)). Proteins were separated on 18% SDS-PAGE gels. Membranes were incubated at 4° C. overnight with 1:1000 anti-hyperacetylated histone H4 antibody (06-946, Millipore) or 1:1000 anti-α-tubulin antibody (Sigma-Aldrich) in PBT containing 5% nonfat milk.
On the technique in general: A western blot detects proteins with antibodies after separation by electrophoresis.

The mark [10] stands for this setting: 7 days at 50 mg/ml starting 24 hrs after severe IR.

pEC50: −log10 of the molar value. Values joined by “and” are separate entries in the source; they are usually repeats but may differ in a detail not shown here. Identical values can stand only once.

Consider `O=C(CCCSc1ccccc1)Nc1ccccc1O` [UPHD-00186, N-(2-hydroxyphenyl)-4-(phenylsulfanyl) butanamide], for which the pEC50 in data set [1] is 6.19 and 6.09. Also, the pEC50 in data set [1] (Danio rerio) was 6.23. In [2] (IP days 0 to 6, kidneys harvested at day 7), the “fibrosis (Sirius red) and expression of fibrosis markers in UUO kidney” value was “reduce both fibrosis and expression of fibrosis markers”. Moreover, in data set [2] (mouse, in vivo), the “prevention of post injury fibrosis in UUO compared with Vorinostat (SAHA)” value was “more effective than the FDA approved HDACi drug Vorinostat (SAHA)”. Moreover, in [3] (setting [10]), the “fibrosis after 28 days (Sirus Red, markers of fibrosis)” value was “most reduction in fibrosis” and the “serum creatinine at day 9” value was “better activity”. Besides, in data set [3] (FIG. 46), the “effect of timing of treatment in severe IR-AKI” value was “has still a significant effect on IR-AKI after more than 7 days”. For the same compound, in data set [3] (treatment 3 days after IR-AKI, FIG. 48), the “post injury fibrosis with delayed treatment” value is given as “still markedly reduces post injury fibrosis”. In data set [3] (various dosages, FIG. 45), the “reduction in post injury fibrosis at various dosages” value is on record as “efficient at elevated doses”.
As for `O=C(O)CCCc1ccccc1` [PBA, 4-phenylbutanoic acid], the “HDAC activity, % of the control value” is 19% in [4] and 30% in data set [7]. In addition, in data set [5] (n=90), the “death (lethality) by 72 hpf” value was found to be 8%. The “larvae with edemic phenotype / pericardial edema at 72 hpf” value in data set [5] (treated from 2 hpf, 3 μM PTBA) worked out at 23%. The “embryos with decreased myod1 expression” value in data set [6] (3 μM PTBA (slightly decreased), 200 nM TSA) is on record as 57%. In data set [6] (3 μM PTBA), the “embryos with increased ntla expression” value was determined as 87%. Moreover, the “embryos with decreased fli1a expression” value in data set [6] (200 nM TSA) was 78%. Besides, the “concentration producing lhx1a expansion consistent with 3 μM PTBA” value in data set [8] amounted to 25 µM. For the same compound, the “histone H4 hyperacetylation” value in data set [9] was “hyperacetylation was observed”.

The pEC50 is −log10 of the EC50, conventionally taken in molar units. High values mean a small EC50, low ones a large EC50.

The values are drawn from patent US10233201B2, “Class of HDAC inhibitors expands the renal progenitor cells population and improves the rate of recovery from acute kidney injury” (University of Pittsburgh—Of the Commonwealth System of …, priority 2012, dated 2019).
